The source of these data is patent US12252524B2, “GIP/GLP1 co-agonist compounds” (Eli Lilly and Company, priority 2018, dated 2025).

Numbered stars: 1 amine (or outer) side, 2 acyl side, 3 side chain; on linkers, the order of the positions; unused ones are H or OH. Square brackets hold non-standard residues; d marks the D form. Side chains are listed from the residue outwards. Peptide text beside a SMILES is read from it. * marks the point of attachment. C20 diacid = O=C(O)CCCCCCCCCCCCCCCCCCC(=O)*; γGlu = O=C(O)[C@H](CCC(=O)[*:2])N[*:1]; αMeY = C[C@](N)(Cc1ccc(O)cc1)C(=O)O; αMeL = CC(C)C[C@](C)(N)C(=O)O; Orn = NCCC[C@H](N)C(=O)O; Dap = NC[C@H](N)C(=O)O; AEEA = NCCOCCOCC(=O)O; Aib = CC(C)(N)C(=O)O

Test [1] addresses human GLP-1 receptor (GLP-1R) (Homo sapiens, UniProt P43220). Briefly: cAMP pharmacological functional assay in presence of casein, hGLP-1R. It counts as cell-based. The note with it: HEK293 cells expressing hGLP-1R, 0.1% Casein, geometric mean; read-out: hGLP1R cAMP Rel EC50 nM (SEM, n).
Test [2] concerns the target T1, gastric inhibitory peptide receptor (GIPR) (Homo sapiens, UniProt P48546).
T1 sequence (P48546 22-466): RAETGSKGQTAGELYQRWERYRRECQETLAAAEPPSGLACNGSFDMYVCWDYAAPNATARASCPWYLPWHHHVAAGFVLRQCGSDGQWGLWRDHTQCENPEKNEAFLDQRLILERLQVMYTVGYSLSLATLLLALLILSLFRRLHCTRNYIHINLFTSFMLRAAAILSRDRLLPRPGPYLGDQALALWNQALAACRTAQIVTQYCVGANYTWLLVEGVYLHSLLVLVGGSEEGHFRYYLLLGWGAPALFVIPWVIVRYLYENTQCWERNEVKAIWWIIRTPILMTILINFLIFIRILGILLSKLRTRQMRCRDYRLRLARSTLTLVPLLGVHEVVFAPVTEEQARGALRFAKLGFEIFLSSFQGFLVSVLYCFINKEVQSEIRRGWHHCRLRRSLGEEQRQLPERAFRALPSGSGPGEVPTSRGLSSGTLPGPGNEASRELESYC
In words: cAMP pharmacological functional assay in presence of casein, hGIPR. It counts as cell-based. As to conditions: HEK293 cells expressing hGIPR, 0.1% Casein, geometric mean; read-out: hGIPR cAMP Rel EC50 nM (SEM, n).

Test [3] addresses T2, human GLP-1R (Homo sapiens, UniProt P43220). Briefly: GLP-1R CHO cell β-arrestin recruitment assay. It counts as cell-based. More on the design: host or cells: CHO-K1 PathHunter cells, assay-ready frozen. The note with it: for EC50: CHO-K1 cells, PathHunter β-arrestin-2 recruitment, 0.1% casein, read-out: hGLP1R B-Arrestin2 Rel EC50 uM (SEM, n); for hGLP1R B-Arrestin2 % Top: normalized to GLP-1 maximum control. The procedure, abridged: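 PathHunter CHO-K1 cells with ProLink-tagged human GLP-1R and enzyme-acceptor-tagged β-arrestin-2 treated with serially diluted peptides in assay buffer containing 0.1% hydrolyzed casein, 90 min at 37 °C.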
In general terms: Arrestin recruitment assays detect the binding of arrestin to an activated receptor.

The target in test [4] is T2, human GLP-1R. Briefly: GLP-1R HEK293 cell membrane [35S]GTPγS binding assay. The format is biochemical. More on the design: expressed in transfected cells; host or cells: HEK293 cells expressing human GLP-1R; membranes. The note with it: HEK293 cell membranes expressing human GLP-1R, [35S]GTPγS binding; read-out: hGLP1R GTPgS Rel EC50 nM (SEM, n). The method in brief:
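Membranes from HEK293 cells expressing the receptor incubated with peptide and […] [35S]GTPγS in HEPES pH 7.4 buffer with NaCl, MgCl2, saponin and BSA, 30 min at room temperature. Gαs-bound label captured by anti-Gαs antibody/SPA beads and counted; EC50 from four-parameter logistic fit.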

T2 sequence (P43220 24-463): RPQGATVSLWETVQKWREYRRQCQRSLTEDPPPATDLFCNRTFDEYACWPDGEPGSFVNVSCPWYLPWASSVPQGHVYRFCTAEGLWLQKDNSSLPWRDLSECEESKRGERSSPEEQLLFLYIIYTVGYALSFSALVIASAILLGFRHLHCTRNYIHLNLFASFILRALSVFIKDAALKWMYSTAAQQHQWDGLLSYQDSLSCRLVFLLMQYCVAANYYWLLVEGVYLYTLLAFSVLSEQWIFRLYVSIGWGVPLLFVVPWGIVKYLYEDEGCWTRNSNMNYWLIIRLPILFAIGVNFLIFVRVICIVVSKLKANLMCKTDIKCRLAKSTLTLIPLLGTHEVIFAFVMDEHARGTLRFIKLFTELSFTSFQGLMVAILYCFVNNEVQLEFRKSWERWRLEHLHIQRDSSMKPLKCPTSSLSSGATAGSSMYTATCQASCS
Sequence of human GLP-1 receptor (GLP-1R) (P43220 24-463): as above

The EC50 is the concentration giving half of the maximal effect. As to `CC[C@H](C)[C@H](NC(=O)[C@H](CC(C)C)NC(=O)[C@H](Cc1ccc(O)cc1)NC(=O)[C@H](CCC(=O)O)NC(=O)[C@@H](NC(=O)[C@H](Cc1ccccc1)NC(=O)[C@H](CCC(=O)O)NC(=O)C(C)(C)NC(=O)[C@H](CCC(N)=O)NC(=O)[C@H](C)NC(=O)[C@H](CCCCNC(=O)COCCOCCNC(=O)COCCOCCNC(=O)CC[C@H](NC(=O)CCCCCCCCCCCCCCCCCCC(=O)O)C(=O)O)NC(=O)[C@H](CN)NC(=O)[C@H](CC(=O)O)NC(=O)[C@H](CC(C)C)NC(=O)[C@](C)(CC(C)C)NC(=O)[C@@H](NC(=O)[C@H](CO)NC(=O)[C@H](Cc1ccc(O)cc1)NC(=O)[C@H](CC(=O)O)NC(=O)[C@H](CO)NC(=O)[C@@H](NC(=O)[C@H](Cc1ccccc1)NC(=O)[C@@H](NC(=O)CNC(=O)[C@H](CCC(=O)O)NC(=O)C(C)(C)NC(=O)[C@H](N)Cc1ccc(O)cc1)[C@@H](C)O)[C@@H](C)O)[C@@H](C)CC)[C@@H](C)CC)C(=O)N[C@@H](C)C(=O)NCC(=O)NCC(=O)N1CCC[C@H]1C(=O)N[C@@H](CO)C(=O)N[C@@H](CO)C(=O)NCC(=O)N[C@@H](C)C(=O)N1CCC[C@H]1C(=O)N1CCC[C@H]1C(=O)N1CCC[C@H]1C(=O)N[C@@H](CO)C(N)=O` [Example 351] (H-[dY][Aib]EGTFTSDYSI[αMeL]LD[Dap]K([AEEA-AEEA-γGlu-C20 diacid])AQ[Aib]EFIEYLIAGGPSSGAPPPS-NH2), the EC50 stood at 0.149 nM in test [1], 0.298 nM in test [2], 0.0196 µM on human GLP-1R [3] and 0.563 nM at human GLP-1R [4]. Further, the “hGLP1R B-Arrestin2 % Top” value at human GLP-1R [3] was determined as 23.5%.
Regarding `CC[C@H](C)[C@H](NC(=O)[C@H](CC(C)C)NC(=O)[C@H](Cc1ccc(O)cc1)NC(=O)[C@@H](CCC(=O)O)NC(=O)[C@@H](NC(=O)[C@H](Cc1ccccc1)NC(=O)[C@H](CCC(=O)O)NC(=O)C(C)(C)NC(=O)[C@H](CCC(N)=O)NC(=O)[C@H](C)NC(=O)[C@H](CCCCNC(=O)COCCOCCNC(=O)COCCOCCNC(=O)CC[C@H](NC(=O)CCCCCCCCCCCCCCCCCCC(=O)O)C(=O)O)NC(=O)[C@H](CCCCN)NC(=O)[C@H](CC(=O)O)NC(=O)[C@H](CC(C)C)NC(=O)[C@](C)(CC(C)C)NC(=O)[C@@H](NC(=O)[C@H](CO)NC(=O)[C@H](Cc1ccc(O)cc1)NC(=O)[C@H](CC(=O)O)NC(=O)[C@H](CO)NC(=O)[C@@H](NC(=O)[C@H](Cc1ccccc1)NC(=O)[C@@H](NC(=O)CNC(=O)[C@H](CCC(=O)O)NC(=O)C(C)(C)NC(=O)[C@H](N)Cc1ccc(O)cc1)[C@@H](C)O)[C@@H](C)O)[C@@H](C)CC)[C@@H](C)CC)C(=O)N[C@@H](CCC(=O)O)C(=O)NCC(=O)NCC(=O)N1CCC[C@H]1C(=O)N[C@@H](CO)C(=O)N[C@@H](CO)C(=O)NCC(=O)N[C@@H](C)C(=O)N1CCC[C@H]1C(=O)N1CCC[C@H]1C(=O)N1CCC[C@H]1C(=O)N[C@@H](CO)C(N)=O` [Example 353] (H-[dY][Aib]EGTFTSDYSI[αMeL]LDKK([AEEA-AEEA-γGlu-C20 diacid])AQ[Aib]EFI[dE]YLIEGGPSSGAPPPS-NH2), the EC50 in test [1] came out at 1.09 nM; in test [2], 0.497 nM; on human GLP-1R [3], 0.559 µM; on human GLP-1R [4], 1.96 nM. Besides, the “hGLP1R B-Arrestin2 % Top” value on human GLP-1R [3] was found to be 23.0%.
`CC[C@H](C)[C@H](NC(=O)[C@H](CC(C)C)NC(=O)[C@H](Cc1ccc(O)cc1)NC(=O)[C@@H](CCC(=O)O)NC(=O)[C@@H](NC(=O)[C@H](Cc1ccccc1)NC(=O)[C@H](CCC(=O)O)NC(=O)C(C)(C)NC(=O)[C@H](CCC(N)=O)NC(=O)[C@H](C)NC(=O)[C@H](CCCCNC(=O)COCCOCCNC(=O)COCCOCCNC(=O)CC[C@H](NC(=O)CCCCCCCCCCCCCCCCCCC(=O)O)C(=O)O)NC(=O)[C@H](CCCN)NC(=O)[C@H](CC(=O)O)NC(=O)[C@H](CC(C)C)NC(=O)[C@](C)(CC(C)C)NC(=O)[C@@H](NC(=O)[C@H](CO)NC(=O)[C@H](Cc1ccc(O)cc1)NC(=O)[C@H](CC(=O)O)NC(=O)[C@H](CO)NC(=O)[C@@H](NC(=O)[C@H](Cc1ccccc1)NC(=O)[C@@H](NC(=O)CNC(=O)[C@H](CCC(=O)O)NC(=O)C(C)(C)NC(=O)[C@H](N)Cc1ccc(O)cc1)[C@@H](C)O)[C@@H](C)O)[C@@H](C)CC)[C@@H](C)CC)C(=O)N[C@@H](CCC(=O)O)C(=O)NCC(=O)NCC(=O)N1CCC[C@H]1C(=O)N[C@@H](CO)C(=O)N[C@@H](CO)C(=O)NCC(=O)N[C@@H](C)C(=O)N1CCC[C@H]1C(=O)N1CCC[C@H]1C(=O)N1CCC[C@H]1C(=O)N[C@@H](CO)C(N)=O` [Example 355] (H-[dY][Aib]EGTFTSDYSI[αMeL]LD[Orn]K([AEEA-AEEA-γGlu-C20 diacid])AQ[Aib]EFI[dE]YLIEGGPSSGAPPPS-NH2): the EC50 in test [1] turned out to be 0.896 nM; in test [2] it was 0.685 nM; at human GLP-1R [3] it was 0.363 µM; on human GLP-1R [4], 1.76 nM. Also, the “hGLP1R B-Arrestin2 % Top” value at human GLP-1R [3] was found to be 18.3%.
For the compound `CC[C@H](C)[C@H](NC(=O)[C@H](CC(C)C)NC(=O)[C@](C)(Cc1ccc(O)cc1)NC(=O)[C@H](CCC(=O)O)NC(=O)[C@@H](NC(=O)[C@H](Cc1ccccc1)NC(=O)[C@H](C)NC(=O)C(C)(C)NC(=O)[C@H](CCC(N)=O)NC(=O)[C@H](C)NC(=O)[C@H](CCCCNC(=O)COCCOCCNC(=O)COCCOCCNC(=O)CC[C@H](NC(=O)CCCCCCCCCCCCCCCCCCC(=O)O)C(=O)O)NC(=O)[C@H](CCCCN)NC(=O)[C@H](CC(=O)O)NC(=O)[C@H](CC(C)C)NC(=O)[C@](C)(CC(C)C)NC(=O)[C@@H](NC(=O)[C@H](CO)NC(=O)[C@H](Cc1ccc(O)cc1)NC(=O)[C@H](CC(=O)O)NC(=O)[C@H](CO)NC(=O)[C@@H](NC(=O)[C@H](Cc1ccccc1)NC(=O)[C@@H](NC(=O)CNC(=O)[C@H](CCC(=O)O)NC(=O)C(C)(C)NC(=O)[C@H](N)Cc1ccc(O)cc1)[C@@H](C)O)[C@@H](C)O)[C@@H](C)CC)[C@@H](C)CC)C(=O)N[C@@H](C)C(=O)NCC(=O)NCC(=O)N1CCC[C@H]1C(=O)N[C@@H](CO)C(=O)N[C@@H](CO)C(=O)NCC(=O)N[C@@H](C)C(=O)N1CCC[C@H]1C(=O)N1CCC[C@H]1C(=O)N1CCC[C@H]1C(=O)N[C@@H](CO)C(N)=O` [Example 365] (H-[dY][Aib]EGTFTSDYSI[αMeL]LDKK([AEEA-AEEA-γGlu-C20 diacid])AQ[Aib]AFIE[αMeY]LIAGGPSSGAPPPS-NH2), the EC50 was 0.175 nM in test [1], 0.0678 nM in test [2], 0.00703 µM on human GLP-1R [3] and 0.464 nM on human GLP-1R [4]. Further, the “hGLP1R B-Arrestin2 % Top” value at human GLP-1R [3] came to 20.8%.
